Reference: patent publication US20260327235A1, “CRYSTAL FORM OF PYRIMIDO AZACYCLO COMPOUND, AND PREPARATION METHOD THEREFOR AND USE THEREO” (TYK MEDICINES, INC., priority 2023, published 2026)
≈ marks a conversion by molar mass, not a printed value. Entries after “also recorded” stand apart in the source; their conditions may differ.

Assays:
[1] = Evaluation of amorphous free base: slurry in solvent, 2 days; assay type: physicochemical; settings: for Resulting crystal form: room temperature, 2 days
Protocol: 100 mg of the amorphous free base sample obtained in the present invention was weighed and a solvent was added to form a suspension. The mixture was stirred at room temperature for 2 days, and the results are as follows: […]

[2] = Solid state stability study, 7 days; assay type: physicochemical; settings: for Purity: 10080 min; for Crystal stability (in words): 60 °C/closed and 40 °C/75% RH; for Initial purity: stability baseline; for Solid-state stability (in words): summary; for HPLC purity (area %) at 168 h: solid state
Protocol: (§1) HPLC analysis was performed using Agilent HPLC 1260 series instruments.

[3] = Rat pharmacokinetics after single oral administration; assay type: in vivo, SD rats; settings: for In vivo exposure level (in words): compared with free base crystal form I
[4] = Dog pharmacokinetics after single oral administration; assay type: in vivo, dogs; settings: compared with free base crystal form I
[5] = Pharmacokinetic studies in animals, summary statements; assay type: in vivo; settings: for In vivo exposure levels in animals (in words): summary; for Absorption (in words) / Bioavailability in vivo (in words) / Blood drug concentration distribution (in words) / Stability in vivo (in words): pharmacokinetic studies
[6] = Rough solubility of free base crystal form I in solvents by visual inspection; assay type: physicochemical; settings: room temperature
[7] = Solubility test in biological media and water at 37 °C (HPLC); assay type: physicochemical; settings: for Solubility: calculated using free base
Protocol: as §1
The solubility of salt was calculated using free base.

[8] = gavage, 10 mpk, 0.5% MC + 1% tween 80, plasma, 10 mg/kg
[9] = FaSSIF (pH = 6.49), 0.5 h, 37 °C, LOQ ~1.0 μg/mL
[10] = FaSSIF (pH = 6.49), solution at 0.5 h
[11] = FaSSIF (pH = 6.49), solution at 2.0 h
[12] = FaSSIF (pH = 6.49), solution at 24 h
[13] = FeSSIF (pH = 5.00), solution at 0.5 h
[14] = FeSSIF (pH = 5.00), solution at 2.0 h
[15] = FeSSIF (pH = 5.00), solution at 24 h
[16] = SGF (pH = 1.19), solution at 0.5 h
[17] = SGF (pH = 1.19), solution at 2.0 h
[18] = SGF (pH = 1.19), solution at 24 h
[19] = Water (pH = 5.45), 0.5 h/2 h/24 h, 37 °C, LOQ ~1.0 μg/mL
[20] = Water (pH = 5.45), solution at 0.5 h
[21] = Water (pH = 5.45), solution at 2.0 h
[22] = Water (pH = 5.45), solution at 24 h

In the case of `CCn1ncc2c(Nc3cc(C)[nH]n3)nc([C@H]3CC[C@](OC)(C(=O)N[C@@H](C)c4cnc(-n5cc(F)cn5)cn4)CC3)nc21` [Amorphous free base], the Resulting crystal form ([1]; Acetone suspension) is reported as “form III”, the Resulting crystal form ([1]; Methanol suspension) is reported as “form I” and the “Stability of amorphous sample (in words)” value ([1]; in the solvent) is reported as “unstable and easily transformed into other crystal forms in the solvent”.

In the case of `CCn1ncc2c(Nc3cc(C)[nH]n3)nc([C@H]3CC[C@](OC)(C(=O)N[C@@H](C)c4cnc(-n5cc(F)cn5)cn4)CC3)nc21` [Free base crystal form III], the XRPD ([2]; 40 °C/75% RH, 7 days) is reported as “Unchanged”, the Purity ([2]; 40 °C/75% RH, 7 days) is reported as 99.253 Area % and the XRPD ([2]; 60 °C/Closed, 7 days) is reported as “Unchanged”. The Purity ([2]; 60 °C/Closed, 7 days) was 99.212 Area %, the “Crystal stability (in words)” value ([2]; 7 days) was “good” and the Initial purity [2] was 99.316 Area %. For the same compound, the “In vivo exposure level (in words)” value [3] was “higher than those of free base crystal form I”, the “In vivo exposure level (in words)” value [4] was “higher than those of free base crystal form I” and the “In vivo exposure levels in animals (in words)” value (“In vivo exposure levels” for short) [5] was “higher animal exposure levels compared to the free base crystal form I”. The “Absorption (in words)” value [5] was “easy to absorb”, the “Bioavailability in vivo (in words)” value [5] was “high bioavailability” and the “Blood drug concentration distribution (in words)” value [5] was “good blood drug concentration distribution”. The “Stability in vivo (in words)” value [5] was “good stability in vivo”.

With `CCn1ncc2c(Nc3cc(C)[nH]n3)nc([C@H]3CC[C@](OC)(C(=O)N[C@@H](C)c4cnc(-n5cc(F)cn5)cn4)CC3)nc21` [Free base crystal form I] the Solubility ([6]; 2-Me-THF) was 11.1 to 12.5 mg/mL, the Solubility ([6]; Acetone) was 7.1 to 8.3 mg/mL and the Solubility ([6]; DCM) was 4.6 to 5.0 mg/mL. The Solubility ([6]; EA) was 2.2 to 2.3 mg/mL, the Solubility ([6]; IPAc) was 1.5 to 1.6 mg/mL and the Solubility ([6]; THF) was 41.7 to 50.0 mg/mL. The Solubility ([6]; organic solvent or mixture, ACN, read-out: Solubility) was about 0.8 mg/mL (≈ 1.36 mM), the “Solubility in the remaining solvents (in words)” value ([6]; solvents other than DMSO and THF) was “poor solubility” and the AUC0-last [3, 8] was 1.172 µg·h/mL. The AUCINF [3, 8] was 1.197 µg·h/mL, the Cmax [3, 8] was 0.158 µg/mL and the T1/2 [3, 8] was 2.69 h.

For `CCn1ncc2c(Nc3cc(C)[nH]n3)nc([C@H]3CC[C@](OC)(C(=O)N[C@@H](C)c4cnc(-n5cc(F)cn5)cn4)CC3)nc21` [Fumarate crystal form I], the Solubility [7, 9] was “<LOQ^1”, the pH [7, 10] was 6.48 and the pH [7, 11] was 6.54. It also gave a pH [7, 12] of 5.91, a pH [7, 13] of 5.01 and a pH [7, 14] of 5.03. The pH [7, 15] was 4.93, the pH [7, 16] was 1.17 and the pH [7, 17] was 1.22. The pH [7, 18] was 1.27, the Solubility [7, 19] was “<LOQ” and the pH [7, 20] was 5.22. The pH [7, 21] was 5.84, the pH [7, 22] was 3.50 and the “XRPD (24 h)” value ([7]; solid form after 24 h in FaSSIF (pH = 6.49)) was “amorphous”. The “Chemical purity change (in words)” value ([2]; 40 °C/75% RH, 7 days) was “slightly decreases”, the XRPD ([2]; 40 °C/75% RH, 7 days) was “Unchanged” and the Purity ([2]; 40 °C/75% RH, 7 days) was 97.914 Area %. For the same compound, the XRPD ([2]; 60 °C/Closed, 7 days) was “Unchanged”, the Purity ([2]; 60 °C/Closed, 7 days) was 98.119 Area % and the “Crystal stability (in words)” value ([2]; 7 days) was “good”. For the same compound, the “Stability (in words)” value ([2]; closed high temperature condition (60 °C), 7 days) was “good”, the Initial purity [2] was 98.062 Area % and the “Solid-state stability (in words)” value [2] was “good solid-state stability”. For the same compound, the “In vivo exposure level (in words)” value [3] was “higher than those of free base crystal form I”, the “In vivo exposure level (in words)” value [4] was “higher than those of free base crystal form I” and the “In vivo exposure levels” value [5] was “excellent in vivo exposure levels; also recorded: higher animal exposure levels compared to the free base crystal form I”. The “Absorption (in words)” value [5] was “easy to absorb”, the “Bioavailability in vivo (in words)” value [5] was “high bioavailability” and the “Blood drug concentration distribution (in words)” value [5] was “good blood drug concentration distribution”. The “Stability in vivo (in words)” value [5] was “good stability in vivo”.

In the case of `CCn1ncc2c(Nc3cc(C)[nH]n3)nc([C@H]3CC[C@](OC)(C(=O)N[C@@H](C)c4cnc(-n5cc(F)cn5)cn4)CC3)nc21` [Malate crystal form I], the Solubility [7, 9] is reported as “<LOQ”, the Solubility ([7]; FaSSIF (pH = 6.49), 24 h, 37 °C, LOQ ~1.0 μg/mL) is reported as “<LOQ” and the pH [7, 10] is reported as 6.45. The pH [7, 11] was 6.30, the pH [7, 12] was 5.61 and the pH [7, 13] was 4.95. It also gave a pH [7, 14] of 4.96, a pH [7, 15] of 4.90 and a Solubility ([7]; SGF (pH = 1.19), 0.5 h, 37 °C, 30 min) of 0.204753 mg/mL. It also gave a Solubility ([7]; SGF (pH = 1.19), 24 h, 37 °C, 1440 min) of 0.079977 mg/mL, a pH [7, 16] of 1.27 and a pH [7, 17] of 1.29. For the same compound, the pH [7, 18] was 1.33, the Maximum solubility ([7]; SGF medium, 0.5 hours, 37 °C, 30 min) was 0.20 mg/mL and the Solubility [7, 19] was “<LOQ”. It also gave a pH [7, 20] of 4.76, a pH [7, 21] of 4.19 and a pH [7, 22] of 3.88. For the same compound, the “XRPD (24 h)” value ([7]; solid form after 24 h in FeSSIF (pH = 5.00)) was “amorphous”, the XRPD ([2]; 40 °C/75% RH, 7 days) was “Unchanged” and the XRPD ([2]; 60 °C/Closed, 7 days) was “Unchanged”. The “Crystal stability (in words)” value ([2]; 7 days) was “good”, the Initial purity [2] was 98.772 Area % and the HPLC purity (area %) at 168 h ([2]; 40 °C/75% RH, 7 days) was 98.7%. For the same compound, the HPLC purity (area %) at 168 h ([2]; 60 °C/Closed, 7 days) was 98.8%, the “Solid-state stability (in words)” value [2] was “good solid-state stability” and the “In vivo exposure level (in words)” value [3] was “higher than those of free base crystal form I”. For the same compound, the AUC0-last [3, 8] was 1.209 µg·h/mL, the AUCINF [3, 8] was 1.217 µg·h/mL and the “In vivo exposure level (in words)” value [4] was “higher than those of free base crystal form I”. The “In vivo exposure levels” value [5] was “excellent in vivo exposure levels; also recorded: higher animal exposure levels compared to the free base crystal form I”, the “Absorption (in words)” value [5] was “easy to absorb” and the “Bioavailability in vivo (in words)” value [5] was “high bioavailability”. For the same compound, the “Blood drug concentration distribution (in words)” value [5] was “good blood drug concentration distribution” and the “Stability in vivo (in words)” value [5] was “good stability in vivo”.
